Measurements from patent US20240424132A1, “ATHEROSCLEROSIS-TARGETED LIPOSOME NANOCARRIER DELIVERY SYSTEM AND PREPARATION METHOD THEREFOR” (Beijing Inno Medicine Co., Ltd., priority 2021, published 2024).

Tested on: arterial plaques
Test: In vivo therapeutic effect on arterial plaques (carotid MRI, percentage of plaque volume progression)
Design: species or system ApoE−/− mice
Settings: 0.66 mg rosuvastatin per kg, once every other day, 4 weeks
Procedure: (1) A normal saline solution of free rosuvastatin was prepared, and a nanodelivery system loaded with the therapeutic agent was prepared by the method described in the above Example 2. SPF-grade ApoE−/− mice (42 mice, 5-6 weeks old, weight 20±1 g) were taken as assay animals. The mice were fed an adaptive high-fat diet (fat 10% (w/w), cholesterol 2% (w/w), sodium cholate 0.5% (w/w), and the rest being normal feed for mice) for 4 weeks, and then anaesthetized via intraperitoneal injection of 1% sodium pentobarbital (prepared by adding […] of sodium pentobarbital to 100 ml of normal saline) at a dose of 40 mg/kg. Then, the mice were fixed on the surgical plate in the supine position, and disinfected around the neck with 75% (v/v) alcohol. The neck skin was cut longitudinally, and the anterior cervical gland was bluntly separated, and the beating left common carotid artery can be observed on the left side of the trachea. The common carotid artery was carefully separated to the bifurcation. A silicone cannula with a length of 2.5 mm and an inner size of 0.3 mm was placed on the outer periphery of the left common carotid artery. […] For animals in each group, carotid MRI scans were performed before and after treatment weekly to detect plaque and lumen area, and the percentage of plaque volume progression was calculated based on the scanned thickness. […]

CC(C)c1nc(N(C)S(C)(=O)=O)nc(-c2ccc(F)cc2)c1/C=C/[C@@H](O)C[C@@H](O)CC(=O)O [free rosuvastatin, rosuvastatin]
therapeutic effect on plaques, intravenous administration (intravenous): cannot exhibit the therapeutic effect of reversing plaques | therapeutic effect on plaques, oral administration (oral): cannot exhibit the therapeutic effect of reversing plaques
